Source: US12637425B2, “Compounds and formulations for treating ophthalmic diseases” (Visus Therapeutics, Inc., priority 2020, dated 2026)

Biological target: T1, Recombinant cryAB(R120G) protein (Homo sapiens, UniProt P02511, R120G)
T1 sequence (P02511 1-175 R120G): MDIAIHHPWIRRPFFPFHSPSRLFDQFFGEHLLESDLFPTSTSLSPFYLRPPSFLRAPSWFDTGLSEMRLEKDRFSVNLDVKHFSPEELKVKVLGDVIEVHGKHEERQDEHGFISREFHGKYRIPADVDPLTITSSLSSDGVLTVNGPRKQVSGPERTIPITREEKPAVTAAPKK
Assay: Kinetic turbidity aggregation assay of recombinant cryAB(R120G)
Assay type: biochemical
Settings: for inhibition at 25 µM / % Inhibition of Protein Aggregation, 25 μM cmpd: 25 μM compound; for inhibition at 25 µM: read-out: % Inhibition of Protein Aggregation, 25 μM cmpd; for inhibition at 100 µM / % Inhibition of Protein Aggregation, 100 μM cmpd: 100 μM compound; for inhibition at 100 µM: read-out: % Inhibition of Protein Aggregation, 100 μM cmpd; for IC50: inhibition of cryAB(R120G) protein aggregation; for inhibition at 400 µM: read-out: % Inhibition of Protein Aggregation, 400 μM cmpd
Description: Example A-1: Kinetic Turbidity Aggregation Assay of Recombinant cryAB(R120)
Recombinant cryAB(R120G) protein was diluted to 100 μM in assay buffer (50 mM Tris, 100 mM NaCl, 5 mM DTT, 0.01% Triton X-100, 0.05% PEG-8000). Compounds were dissolved in DMSO at 10 mM then typically diluted to 2.5 mM in DMSO and serially diluted 2-fold as necessary. To a 384-well black microplate in quadruplicate was added 81 μL assay buffer, followed by 15 μL protein solution, and 4 μL compound to give a final concentration of 15 μM cryAB(R120G) protein in 4% DMSO. […] N.D. is not determined.

[1] = 15 μM cryAB(R120G), 42° C., absorbance at 550 nm
[2] = 400 μM compound, 15 μM cryAB(R120G), 42° C., absorbance at 550 nm

Structure (SMILES)	inhibition at 25 µM [1] [%]	inhibition at 100 µM [1] [%]	% Inhibition of Protein Aggregation, 25 μM cmpd [1] [%]	% Inhibition of Protein Aggregation, 100 μM cmpd [1] [%]	% Inhibition of Protein Aggregation, 400 μM cmpd [2] [%]	IC50 [µM]	inhibition at 400 µM [2] [%]
Cn1cc(C(CNS(=O)(=O)c2ccc3cc[nH]c3c2)N2C[C@H]3COC[C@H]3C2)c2ccccc21 (stereo in doubt) [Compound 31, N-(2-(1-methyl-1H-indol-3-yl)-2-(trans-tetrahydro-1H-furo[3,4-c]pyrrol-5(3H)-yl)ethyl)-1H-indole-6-sulfonamide]	23	70	–	–	–	–	–
CN(C)C(CNS(=O)(=O)c1ccc2cc[nH]c2c1)c1ccc2[nH]ncc2c1 (stereo not shown) [Compound 3, N-(2-(dimethylamino)-2-(1H-indazol-5-yl)ethyl)-1H-indole-6-sulfonamide]	58	83.7	–	–	–	–	99.1
CN1CCN(S(=O)(=O)c2ccc3cc[nH]c3c2)CC1c1cn(C)c2ccccc12 (stereo not shown) [Compound 4, 3-(4-((1H-indol-6-yl)sulfonyl)-1-methylpiperazin-2-yl)-1-methyl-1H-indole]	66.7	62.8	–	–	–	–	91.8
Cn1cc(C(CNS(=O)(=O)c2ccc3cc[nH]c3c2)N2CCCC2)c2ccccc21 (stereo not shown) [Compound 5, N-(2-(1-methyl-1H-indol-3-yl)-2-(pyrrolidin-1-yl)ethyl)-1H-indole-6-sulfonamide]	99.6	99.8	–	–	–	≤ 10	97.9
CN(C)C(CNS(=O)(=O)c1ccc2ccn(C)c2c1)c1cn(C)c2ccccc12 (stereo not shown) [Compound 8, N-(2-(dimethylamino)-2-(1-methyl-1H-indol-3-yl)ethyl)-1-methyl-1H-indole-6-sulfonamide]	-37	-29	–	–	–	–	74.3
CN(C)C(CNS(=O)(=O)c1ccc2ncsc2c1)c1cn(C)c2ccccc12 (stereo not shown) [Compound 11, N-(2-(dimethylamino)-2-(1-methyl-1H-indol-3-yl)ethyl)benzo[d]thiazole-6-sulfonamide]	-6	-20	–	–	–	–	20.5
CC(C)n1cc(C(CNS(=O)(=O)c2ccc3[nH]ccc3c2)N(C)C)c2ccccc21 (stereo not shown) [Compound 12, N-(2-(dimethylamino)-2-(1-isopropyl-1H-indol-3-yl)ethyl)-1H-indole-5-sulfonamide]	30	87.1	–	–	–	–	96.1
CC(C)n1cc(C(CNS(=O)(=O)c2cccc3[nH]ccc23)N(C)C)c2ccccc21 (stereo not shown) [Compound 13, N-(2-(dimethylamino)-2-(1-isopropyl-1H-indol-3-yl)ethyl)-1H-indole-4-sulfonamide]	-6	32.7	–	–	–	–	94.7
CC(C)n1cc(C(CNS(=O)(=O)c2cccc3cc[nH]c23)N(C)C)c2ccccc21 (stereo not shown) [Compound 14, N-(2-(dimethylamino)-2-(1-isopropyl-1H-indol-3-yl)ethyl)-1H-indole-7-sulfonamide]	11	74.9	–	–	–	–	81
CN(C)C(CNS(=O)(=O)c1ccc2cc[nH]c2c1)c1ccc2cc[nH]c2n1 (stereo not shown) [Compound 15, N-(2-(dimethylamino)-2-(1H-pyrrolo[2,3-b]pyridin-6-yl)ethyl)-1H-indole-6-sulfonamide]	50	85.8	–	–	–	–	67.6
CN(C)C(CNS(=O)(=O)c1ccc2cc[nH]c2c1)c1cccc2ncccc12 (stereo not shown) [Compound 17, N-(2-(dimethylamino)-2-(quinolin-5-yl)ethyl)-1H-indole-6-sulfonamide]	-10.7	-13	–	–	–	–	63.5
CN(C)C(CNS(=O)(=O)c1ccc2cc[nH]c2c1)c1c[nH]c2ccccc12 (stereo not shown) [Compound 22, N-(2-(dimethylamino)-2-(1H-indol-3-yl)ethyl)-1H-indole-6-sulfonamide]	57	99	–	–	–	–	95.9
Cn1cc(C(CNS(=O)(=O)c2ccc3[nH]ccc3c2)N2CCCC2)c2ccccc21 (stereo not shown) [Compound 26, N-(2-(1-methyl-1H-indol-3-yl)-2-(pyrrolidin-1-yl)ethyl)-1H-indole-5-sulfonamide]	-4	90.6	–	–	–	–	–
Cn1cc(C(CNS(=O)(=O)c2cccc3[nH]ccc23)N2CCCC2)c2ccccc21 (stereo not shown) [Compound 27, N-(2-(1-methyl-1H-indol-3-yl)-2-(pyrrolidin-1-yl)ethyl)-1H-indole-4-sulfonamide]	–	85	−35	–	–	–	–
Cn1cc(C(CNS(=O)(=O)c2cccc3[nH]ccc23)N2CCCC2)c2ccccc21 (stereo not shown) [Compound 28, N-(2-(1-methyl-1H-indol-3-yl)-2-(pyrrolidin-1-yl)ethyl)-1H-indole-4-sulfonamide]	–	–	7	98.5	–	–	–
Cn1cc(C(CNS(=O)(=O)c2ccc3cc[nH]c3c2)N2CCCCC2)c2ccccc21 (stereo not shown) [Compound 29, N-(2-(1-methyl-1H-indol-3-yl)-2-(piperidin-1-yl)ethyl)-1H-indole-6-sulfonamide]	69	99.9	–	–	–	10 to 50	–
Cn1cc(C(CNS(=O)(=O)c2ccc3cc[nH]c3c2)N2CCOCC2)c2ccccc21 (stereo not shown) [Compound 30, N-(2-(1-methyl-1H-indol-3-yl)-2-morpholinoethyl)-1H-indole-6-sulfonamide]	-28	82	–	–	–	–	–

Next, values leading:

inhibition at 25 µM [1] [%]	inhibition at 100 µM [1] [%]	% Inhibition of Protein Aggregation, 25 μM cmpd [1] [%]	% Inhibition of Protein Aggregation, 100 μM cmpd [1] [%]	% Inhibition of Protein Aggregation, 400 μM cmpd [2] [%]	IC50 [µM]	inhibition at 400 µM [2] [%]	Structure (SMILES)
–	–	84	99.5	96.6	≤ 10	–	CC(C)n1cc(C(CNS(=O)(=O)c2ccc3cc[nH]c3c2)N(C)C)c2ccccc21 (stereo not shown) [Compound 1, N-(2-(dimethylamino)-2-(1-isopropyl-1H-indol-3-yl)ethyl)-1H-indole-6-sulfonamide]
88	99.4	–	–	–	≤ 10	95	CCn1cc(C(CNS(=O)(=O)c2ccc3cc[nH]c3c2)N(C)C)c2ccccc21 (stereo not shown) [Compound 2, N-(2-(dimethylamino)-2-(1-ethyl-1H-indol-3-yl)ethyl)-1H-indole-6-sulfonamide]
19.5	-38	–	–	–	–	18.8	CN(C)C(CNS(=O)(=O)c1ccc2nc[nH]c2c1)c1cn(C)c2ccccc12 (stereo not shown) [Compound 6, N-(2-(dimethylamino)-2-(1-methyl-1H-indol-3-yl)ethyl)-1H-benzo[d]imidazole-6-sulfonamide]
-21	-32	–	–	–	–	56.6	CN(C)C(CNS(=O)(=O)c1ccc2cn[nH]c2c1)c1cn(C)c2ccccc12 (stereo not shown) [Compound 7, N-(2-(dimethylamino)-2-(1-methyl-1H-indol-3-yl)ethyl)-1H-indazole-6-sulfonamide]
68	52.3	–	–	–	10 to 50	98.5	COc1ccc2c(c1)c(C(CNS(=O)(=O)c1ccc3cc[nH]c3c1)N(C)C)cn2C (stereo not shown) [Compound 18, N-(2-(dimethylamino)-2-(5-methoxy-1-methyl-1H-indol-3-yl)ethyl)-1H-indole-6-sulfonamide]
34	81.5	–	–	–	10 to 50	99.9	CN(C)C(CNS(=O)(=O)c1ccc2cc[nH]c2c1)c1nn(C)c2ccccc12 (stereo not shown) [Compound 19, N-(2-(dimethylamino)-2-(1-methyl-1H-indazol-3-yl)ethyl)-1H-indole-6-sulfonamide]
49	99.2	–	–	–	–	93.4	CN(C)C(CNS(=O)(=O)c1ccc2cc[nH]c2c1)c1cn(C)c2ccc(F)cc12 (stereo not shown) [Compound 20, N-(2-(dimethylamino)-2-(5-fluoro-1-methyl-1H-indol-3-yl)ethyl)-1H-indole-6-sulfonamide]
76	99.8	–	–	–	–	90.7	Cc1ccc2c(c1)c(C(CNS(=O)(=O)c1ccc3cc[nH]c3c1)N(C)C)cn2C (stereo not shown) [Compound 21, N-(2-(1,5-dimethyl-1H-indol-3-yl)-2-(dimethylamino)ethyl)-1H-indole-6-sulfonamide]
–	99	61	–	–	10 to 50	100	CC(C)n1cc(C(CNS(=O)(=O)c2ccc3cc[nH]c3c2)N(C)C)c2ccccc21 (stereo not shown) [Compound 23, N-(2-(dimethylamino)-2-(1-isopropyl-1H-indol-3-yl)ethyl)-1H-indole-6-sulfonamide]
60	98.5	–	–	–	10 to 50	–	CN(CCO)C(CNS(=O)(=O)c1ccc2cc[nH]c2c1)c1cn(C)c2ccccc12 (stereo not shown) [Compound 32, N-(2-((2-hydroxyethyl)(methyl)amino)-2-(1-methyl-1H-indol-3-yl)ethyl)-1H-indole-6-sulfonamide]
